# PMC12586182 (Frontiers in Oncology, 2025)
# Key:
# Assay in all cases: Kinase panel profiling at 1 µmol/L (mobility shift assay, Carna)
# [1] = molecular target: T1, CK1γ2 (Homo sapiens, UniProt P78368); assay type: biochemical; conditions: 1 µmol/L of BTK inhibitor
# T1 construct: purchased Carna Biosciences
# [2] = molecular target: Aurora B (Homo sapiens, UniProt Q96GD4); conditions: for Percentage inhibition of kinase enzyme activity: AurB, 1 µmol/L of BTK inhibitor
# [3] = molecular target: T2, BRSK1 (Homo sapiens, UniProt Q8TDC3); assay type: biochemical; conditions: 1 µmol/L of BTK inhibitor
# T2 construct: purchased Carna Biosciences
# T2 sequence (Q8TDC3 1-778): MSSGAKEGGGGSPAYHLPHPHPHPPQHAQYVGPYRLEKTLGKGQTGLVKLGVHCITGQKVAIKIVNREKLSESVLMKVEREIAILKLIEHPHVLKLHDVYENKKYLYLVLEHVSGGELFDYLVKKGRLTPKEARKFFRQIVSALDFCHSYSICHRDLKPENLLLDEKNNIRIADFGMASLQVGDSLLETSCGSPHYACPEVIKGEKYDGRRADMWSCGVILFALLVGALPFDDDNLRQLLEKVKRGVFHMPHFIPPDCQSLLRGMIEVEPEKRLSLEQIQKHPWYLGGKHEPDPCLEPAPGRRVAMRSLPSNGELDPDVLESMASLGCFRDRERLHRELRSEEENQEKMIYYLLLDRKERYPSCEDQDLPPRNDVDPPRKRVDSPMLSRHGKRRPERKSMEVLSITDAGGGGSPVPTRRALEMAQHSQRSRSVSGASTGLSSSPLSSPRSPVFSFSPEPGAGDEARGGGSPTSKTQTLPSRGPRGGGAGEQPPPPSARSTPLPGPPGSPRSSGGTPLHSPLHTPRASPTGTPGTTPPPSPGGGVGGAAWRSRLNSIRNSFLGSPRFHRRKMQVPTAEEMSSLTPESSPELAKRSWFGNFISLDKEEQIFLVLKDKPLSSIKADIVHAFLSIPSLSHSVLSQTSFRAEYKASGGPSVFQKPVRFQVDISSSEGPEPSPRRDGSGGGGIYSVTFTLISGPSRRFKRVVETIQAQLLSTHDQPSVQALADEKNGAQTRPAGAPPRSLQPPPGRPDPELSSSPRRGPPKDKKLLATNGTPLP
# [4] = molecular target: T3, JAK3 (Homo sapiens, UniProt P52333); assay type: biochemical; conditions: 1 µmol/L of BTK inhibitor
# T3 construct: purchased Carna Biosciences
# T3 sequence (P52333 1-1124): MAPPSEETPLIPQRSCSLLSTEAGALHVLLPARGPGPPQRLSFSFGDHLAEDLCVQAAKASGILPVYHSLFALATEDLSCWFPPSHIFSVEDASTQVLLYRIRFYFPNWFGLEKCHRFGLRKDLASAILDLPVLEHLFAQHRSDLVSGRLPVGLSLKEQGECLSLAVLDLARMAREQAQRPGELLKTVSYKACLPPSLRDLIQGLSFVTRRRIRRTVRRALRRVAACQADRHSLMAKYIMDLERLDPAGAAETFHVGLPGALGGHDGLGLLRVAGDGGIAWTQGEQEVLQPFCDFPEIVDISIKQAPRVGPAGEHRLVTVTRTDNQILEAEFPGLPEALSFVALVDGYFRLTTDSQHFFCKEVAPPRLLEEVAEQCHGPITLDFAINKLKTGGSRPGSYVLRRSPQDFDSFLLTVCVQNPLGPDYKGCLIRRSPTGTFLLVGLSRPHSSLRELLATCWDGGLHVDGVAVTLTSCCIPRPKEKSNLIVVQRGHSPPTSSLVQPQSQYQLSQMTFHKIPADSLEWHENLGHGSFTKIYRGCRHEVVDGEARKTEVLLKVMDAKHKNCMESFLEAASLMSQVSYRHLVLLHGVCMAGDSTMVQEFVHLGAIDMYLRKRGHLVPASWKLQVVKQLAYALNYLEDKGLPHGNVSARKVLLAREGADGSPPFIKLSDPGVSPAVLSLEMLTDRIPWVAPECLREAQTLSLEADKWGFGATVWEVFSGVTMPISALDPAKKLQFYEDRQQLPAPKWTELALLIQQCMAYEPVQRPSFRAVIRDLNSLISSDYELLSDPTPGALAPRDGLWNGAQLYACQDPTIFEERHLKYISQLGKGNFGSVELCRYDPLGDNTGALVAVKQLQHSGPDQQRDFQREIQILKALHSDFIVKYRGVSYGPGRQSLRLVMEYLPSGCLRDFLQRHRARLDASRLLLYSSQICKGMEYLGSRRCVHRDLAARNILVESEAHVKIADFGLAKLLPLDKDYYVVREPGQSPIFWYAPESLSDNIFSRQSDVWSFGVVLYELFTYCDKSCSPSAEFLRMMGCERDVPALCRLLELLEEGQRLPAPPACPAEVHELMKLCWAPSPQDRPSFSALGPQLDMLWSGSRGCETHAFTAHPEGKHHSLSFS
# [5] = molecular target: T4, PAK6 (Homo sapiens, UniProt Q9NQU5); assay type: biochemical; conditions: 1 µmol/L of BTK inhibitor
# T4 construct: purchased Carna Biosciences
# [6] = molecular target: T5, ABL (Homo sapiens, UniProt P00519); assay type: biochemical; conditions: 1 µmol/L of BTK inhibitor
# T5 construct: purchased Carna Biosciences
# [7] = molecular target: T6, CK2α2/β (Homo sapiens, UniProt P19784); assay type: biochemical; conditions: 1 µmol/L of BTK inhibitor
# T6 construct: purchased Carna Biosciences
# [8] = molecular target: T7, PGK (Homo sapiens, UniProt Q13976); assay type: biochemical; conditions: 1 µmol/L of BTK inhibitor
# T7 construct: purchased Carna Biosciences
# T7 sequence (Q13976 1-671): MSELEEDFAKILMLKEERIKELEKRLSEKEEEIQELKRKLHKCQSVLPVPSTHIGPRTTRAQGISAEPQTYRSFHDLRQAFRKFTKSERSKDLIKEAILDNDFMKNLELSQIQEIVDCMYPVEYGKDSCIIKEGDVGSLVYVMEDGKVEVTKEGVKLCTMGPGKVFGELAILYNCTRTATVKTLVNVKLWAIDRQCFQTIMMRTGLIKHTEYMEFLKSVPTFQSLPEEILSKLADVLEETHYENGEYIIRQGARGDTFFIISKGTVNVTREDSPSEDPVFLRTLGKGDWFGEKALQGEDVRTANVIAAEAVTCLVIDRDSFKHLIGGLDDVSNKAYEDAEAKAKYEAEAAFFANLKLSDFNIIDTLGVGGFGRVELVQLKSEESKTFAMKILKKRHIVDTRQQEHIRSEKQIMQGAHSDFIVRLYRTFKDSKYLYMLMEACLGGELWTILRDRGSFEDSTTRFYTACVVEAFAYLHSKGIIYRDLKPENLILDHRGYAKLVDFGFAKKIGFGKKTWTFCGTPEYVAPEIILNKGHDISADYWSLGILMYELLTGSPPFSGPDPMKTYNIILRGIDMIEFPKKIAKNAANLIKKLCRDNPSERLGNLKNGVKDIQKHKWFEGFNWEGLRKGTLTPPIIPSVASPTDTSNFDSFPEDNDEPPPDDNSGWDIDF
# [9] = molecular target: T8, PKCγ (Homo sapiens, UniProt P05129); assay type: biochemical; conditions: 1 µmol/L of BTK inhibitor
# T8 construct: purchased Carna Biosciences
# T1 sequence (P78368 whole entry): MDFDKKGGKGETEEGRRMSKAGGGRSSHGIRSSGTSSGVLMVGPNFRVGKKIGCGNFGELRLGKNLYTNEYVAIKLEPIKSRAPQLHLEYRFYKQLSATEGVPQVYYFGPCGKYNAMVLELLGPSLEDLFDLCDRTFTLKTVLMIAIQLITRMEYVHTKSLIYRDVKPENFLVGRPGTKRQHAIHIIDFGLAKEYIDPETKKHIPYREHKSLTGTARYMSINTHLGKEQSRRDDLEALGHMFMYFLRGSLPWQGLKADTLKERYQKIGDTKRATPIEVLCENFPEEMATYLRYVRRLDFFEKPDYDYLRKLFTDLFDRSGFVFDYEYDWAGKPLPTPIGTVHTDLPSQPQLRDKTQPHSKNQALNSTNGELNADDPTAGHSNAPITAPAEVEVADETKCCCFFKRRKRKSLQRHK
# T4 sequence (Q9NQU5 whole entry): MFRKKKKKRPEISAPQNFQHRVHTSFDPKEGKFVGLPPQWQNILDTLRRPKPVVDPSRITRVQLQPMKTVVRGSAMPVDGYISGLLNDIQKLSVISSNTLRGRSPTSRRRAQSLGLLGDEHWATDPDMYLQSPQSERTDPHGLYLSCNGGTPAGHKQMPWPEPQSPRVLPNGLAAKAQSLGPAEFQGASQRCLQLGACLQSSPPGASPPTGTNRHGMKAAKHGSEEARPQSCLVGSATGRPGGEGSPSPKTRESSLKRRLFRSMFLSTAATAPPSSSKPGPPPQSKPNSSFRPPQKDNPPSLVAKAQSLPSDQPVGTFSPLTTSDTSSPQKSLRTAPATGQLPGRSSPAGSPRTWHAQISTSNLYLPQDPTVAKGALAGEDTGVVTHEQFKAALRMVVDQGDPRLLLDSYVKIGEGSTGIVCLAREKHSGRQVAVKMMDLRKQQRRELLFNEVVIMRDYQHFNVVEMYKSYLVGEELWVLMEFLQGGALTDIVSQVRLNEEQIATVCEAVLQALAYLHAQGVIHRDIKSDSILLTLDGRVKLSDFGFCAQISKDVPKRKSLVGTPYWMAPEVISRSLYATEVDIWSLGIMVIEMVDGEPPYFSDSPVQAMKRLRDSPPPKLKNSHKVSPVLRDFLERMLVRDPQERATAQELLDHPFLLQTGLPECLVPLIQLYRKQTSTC
# Aurora B, sequence (Q96GD4 whole entry): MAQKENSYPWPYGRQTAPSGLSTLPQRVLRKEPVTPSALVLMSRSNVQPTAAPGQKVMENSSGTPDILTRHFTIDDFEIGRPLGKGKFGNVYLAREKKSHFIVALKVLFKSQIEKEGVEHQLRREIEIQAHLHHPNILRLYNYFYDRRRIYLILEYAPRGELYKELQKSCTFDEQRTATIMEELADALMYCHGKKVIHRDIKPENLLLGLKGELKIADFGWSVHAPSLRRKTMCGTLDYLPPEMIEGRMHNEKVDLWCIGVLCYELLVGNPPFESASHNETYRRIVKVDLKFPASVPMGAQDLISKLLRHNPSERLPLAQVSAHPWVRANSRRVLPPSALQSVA
# Aurora B, sequence (Q9NQS7 803-916 partner limits assumed): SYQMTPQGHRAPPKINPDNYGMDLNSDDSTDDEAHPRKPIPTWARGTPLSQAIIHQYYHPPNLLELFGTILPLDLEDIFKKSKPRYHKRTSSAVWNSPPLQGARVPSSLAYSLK
# T5 sequence (P00519 whole entry): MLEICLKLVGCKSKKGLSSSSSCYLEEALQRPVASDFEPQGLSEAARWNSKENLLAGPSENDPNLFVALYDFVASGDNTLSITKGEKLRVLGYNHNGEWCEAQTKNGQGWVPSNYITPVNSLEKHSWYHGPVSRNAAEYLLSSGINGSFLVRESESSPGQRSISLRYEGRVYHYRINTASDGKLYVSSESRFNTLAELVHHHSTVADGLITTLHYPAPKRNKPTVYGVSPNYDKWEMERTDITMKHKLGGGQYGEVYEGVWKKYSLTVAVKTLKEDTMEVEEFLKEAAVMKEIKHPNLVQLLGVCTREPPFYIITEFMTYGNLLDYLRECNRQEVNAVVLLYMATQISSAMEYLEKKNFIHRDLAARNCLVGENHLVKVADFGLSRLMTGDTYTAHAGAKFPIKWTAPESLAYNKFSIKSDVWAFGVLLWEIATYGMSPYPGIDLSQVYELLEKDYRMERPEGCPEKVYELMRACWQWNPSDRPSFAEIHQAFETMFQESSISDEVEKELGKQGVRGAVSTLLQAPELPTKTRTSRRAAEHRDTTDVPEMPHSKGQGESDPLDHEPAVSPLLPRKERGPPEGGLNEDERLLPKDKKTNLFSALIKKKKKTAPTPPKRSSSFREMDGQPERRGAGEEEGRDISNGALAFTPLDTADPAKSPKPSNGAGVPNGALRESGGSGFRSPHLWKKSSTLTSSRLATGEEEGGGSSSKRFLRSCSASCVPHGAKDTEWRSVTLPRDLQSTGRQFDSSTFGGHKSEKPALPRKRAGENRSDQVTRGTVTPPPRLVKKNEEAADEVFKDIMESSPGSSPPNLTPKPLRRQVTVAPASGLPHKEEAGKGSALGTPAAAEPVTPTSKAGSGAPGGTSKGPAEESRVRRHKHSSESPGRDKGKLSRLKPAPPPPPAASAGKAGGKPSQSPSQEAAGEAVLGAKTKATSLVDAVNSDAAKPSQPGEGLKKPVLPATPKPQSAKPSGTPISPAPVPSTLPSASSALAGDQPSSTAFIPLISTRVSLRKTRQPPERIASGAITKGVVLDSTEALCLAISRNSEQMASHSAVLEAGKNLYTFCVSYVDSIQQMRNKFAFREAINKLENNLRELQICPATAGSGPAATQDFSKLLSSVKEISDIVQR
# T6 sequence (P19784 whole entry): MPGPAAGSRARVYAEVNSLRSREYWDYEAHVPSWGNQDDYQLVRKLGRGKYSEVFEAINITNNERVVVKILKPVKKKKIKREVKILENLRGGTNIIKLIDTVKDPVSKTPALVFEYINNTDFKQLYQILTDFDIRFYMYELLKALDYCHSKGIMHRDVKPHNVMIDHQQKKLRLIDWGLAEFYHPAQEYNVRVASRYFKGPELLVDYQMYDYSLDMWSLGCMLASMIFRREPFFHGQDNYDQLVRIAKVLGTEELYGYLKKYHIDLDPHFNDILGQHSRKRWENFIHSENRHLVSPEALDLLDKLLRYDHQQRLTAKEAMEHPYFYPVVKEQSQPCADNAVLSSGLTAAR
# T6 sequence (P67870 whole entry partner): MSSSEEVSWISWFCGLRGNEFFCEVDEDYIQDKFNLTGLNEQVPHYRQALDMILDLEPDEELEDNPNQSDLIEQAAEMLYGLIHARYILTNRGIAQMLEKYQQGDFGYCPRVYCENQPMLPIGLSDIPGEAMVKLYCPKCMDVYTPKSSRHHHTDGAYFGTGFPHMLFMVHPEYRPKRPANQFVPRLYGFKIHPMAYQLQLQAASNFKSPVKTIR
SMILES,Percentage inhibition of kinase enzyme activity [1] [%],Percentage inhibition of kinase enzyme activity [2] [%],Percentage inhibition of kinase enzyme activity [3] [%],Percentage inhibition of kinase enzyme activity [4] [%],Percentage inhibition of kinase enzyme activity [5] [%],Percentage inhibition of kinase enzyme activity [6] [%],Percentage inhibition of kinase enzyme activity [7] [%],Percentage inhibition of kinase enzyme activity [8] [%],Percentage inhibition of kinase enzyme activity [9] [%],inhibition at 1 µM ([2]; read-out: Inhibition of Aurora B) [%]
O=C(c1ccc(Oc2ccccc2)cc1Cl)c1c[nH]c2ncnc(N[C@@H]3CC[C@@H](CO)OC3)c12 [nemtabrutinib],-5.17,57.52,12.83,97.48,64.72,56.26,-3.55,-2.11,0.06,
CC#CC(=O)N1CCC[C@H]1c1nc(-c2ccc(C(=O)Nc3ccccn3)cc2)c2c(N)nccn12 [acalabrutinib],-7.07,10.86,-1.79,-1.00,-8.74,-2.81,9.56,-3.70,-7.43,
COc1ccc(F)cc1C(=O)NCc1ccc(-c2nn([C@@H](C)C(F)(F)F)c(N)c2C(N)=O)cc1 [pirtobrutinib],1.27,88.69,3.44,-1.25,4.12,2.26,4.12,0.94,3.04,> 75
C=CC(=O)N1CCC([C@@H]2CCNc3c(C(N)=O)c(-c4ccc(Oc5ccccc5)cc4)nn32)CC1 [zanubrutinib],,,,10.83,,,,,,
C=CC(=O)N1CCC[C@@H](n2nc(-c3ccc(Oc4ccccc4)cc3)c3c(N)ncnc32)C1 [ibrutinib],1.01,-1.10,-7.32,90.92,8.60,7.80,-7.37,1.89,0.80,
